Values quoted from earlier work as cited in patent US20220160670A1, “COMPOSITION COMPRISING L-CARNITINE FOR THE TREATMENT OF MALE INFERTILITY” (LABORATOIRE DES GRANIONS, priority 2017, published 2022).

Columns and labels:
[1] = tested on: number and total forward motility of spermatozoa; details: 2 g/day for 2*2 months; patients with 10 to 20 million/ml and total mobility 10% to 30% at inclusion
[2] = tested on: total forward motility of spermatozoa; details: treatment of 6 months; 3 g/day L-carnitine, 3 g/day L-acetylcarnitine, or 2 g/day + 1 g/day combined

| SMILES | effect on number of spermatozoa [1] | effect on total forward motility of spermatozoa [1] | effect on total forward motility of spermatozoa [2] |
| --- | --- | --- | --- |
| C[N+](C)(C)C[C@H](O)CC(=O)[O-] [L-carnitine] | increase | increase | significantly increases |
| CC(=O)O[C@H](CC(=O)[O-])C[N+](C)(C)C [L-acetylcarnitine] | – | – | significantly increases |
